Legend:
hOT receptor = molecular target: T1, hOT receptor (Homo sapiens, UniProt P30559); experiment: Functional assay No. 1: inhibition of oxytocin mediated Ca2+-mobilization by FLIPR in HEK293EBNA cells; type: cell-based; details: HEK293EBNA cells expressing hOT receptor, OT 40 nM, fluo-4, FLIPR; read-out: Inhibition of Ca2+ mobiliation, hOT-R IC50
T1 construct: expressed in transfected cells; host or cells: HEK293EBNA
T1 sequence (P30559 1-389): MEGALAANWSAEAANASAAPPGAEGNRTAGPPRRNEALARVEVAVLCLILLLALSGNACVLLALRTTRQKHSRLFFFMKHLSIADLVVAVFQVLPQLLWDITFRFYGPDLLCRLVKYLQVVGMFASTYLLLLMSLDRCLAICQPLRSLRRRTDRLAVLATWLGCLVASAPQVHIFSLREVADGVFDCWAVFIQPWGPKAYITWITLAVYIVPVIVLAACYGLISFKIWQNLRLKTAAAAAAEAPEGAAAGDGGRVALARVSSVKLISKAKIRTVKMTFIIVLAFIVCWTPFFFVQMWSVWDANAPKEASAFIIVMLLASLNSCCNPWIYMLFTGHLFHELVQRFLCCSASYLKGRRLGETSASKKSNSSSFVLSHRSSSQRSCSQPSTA
Text: b) Functional Assay No. 1: Inhibition of Oxytocin Mediated Ca^2+-mobilization by FLIPR® (Fluorimetric Imaging Plate Reader)
The action of OT on the OT-receptor triggers a complex cascade of events in the cell which leads to an increase in the intra-cytoplasmic Ca^2+ concentration. This increase in Ca^2+ concentration results from both calcium release from the sarcoplasmic reticulum (calcium stores) into the cytoplasm and from calcium influx from the extracellular space through Ca^2+ channels. […]
FLIPR® is a fluorimetric imaging device using a laser (Argon-ion laser) for simultaneous illumination and reading (cooled CCD camera) of each well of a 96-well-plate, thus enabling rapid measurements on a large number of samples. […]
The relative fluorescence of Fluo-4 (λex=488 nm, […]) is then measured by the FLIPR in presence or absence of compounds of formula (I). The fluorescence of the marker being sensitive to the amount of Ca^2+, the Ca^2+ movements can be detected. Then, the ability of compounds of formula (I) to antagonize the oxytocin-induced intracellular Ca^2+-mobilization mediated by the oxytocin receptor may be determined.
The activities of the pyrrolidine derivatives according to formula (I) were assessed using the above described in vitro biological assay. […]

[1] = test system: oxytocin-induced uterine contractions in the rat; experiment: In vivo model for inhibition of uterine contractions (oxytocin-induced, anaesthetised DES-treated rats); details: intravenous, PEG400/saline 50:50, 5 ml/kg infusion
Description: d) In Vivo Model for Inhibtion of Uterine Contractions
The assay evaluates the biological effect of tested compounds in an in vivo model of preterm labor, premature birth.
Non-pregnant Charles River CD (SD) BR female rats (9–10 weeks old, 200–250 g) were treated at 18 and 24 hours before the experiment with 250 μg/kg, i.p. diethylstilbestrol (DES). For the assay, the animal was anaesthetised with urethane (1.75 g/kg, i.p.) and placed on a homeothermic operating table. The trachea was isolated and cannulated with a suitable polyethylene (PE) tubing. A midline incision at the hypogastrium level was made and one uterine horn exposed, its cephalic end cannulated with a PE240 tubing and, after filling the internal cavity with 0.2 ml of sterile physiological saline, connected to a “Gemini” amplifying/recording system via a P23ID Gould Statham pressure transducer.
One jugular vein was isolated, cannulated with a PE60 tubing and connected to a butterfly needle to provide an i.v. route of administration of the test compounds via a dispensing syringe.
In the case of intraduodenal administration of the test compounds, the duodenum can be isolated and similarly cannulated through a small incision in its wall.
One carotid artery was also isolated and cannulated with PE60 catheter and connected to a suitable syringe for blood sample collection.
After a stabilization period and throughout the experiment, the same dose of oxytocin was repeatedly injected intravenously at 30-min intervals. When reproducible contractile responses of the uterus to the same OT stimulus (selected dose of oxytocin) were obtained, the dose of the test compound or of the reference (vehicle) was administered. […]
The contractile response of the uterus to oxytocin was quantified by measuring the intrauterine pressure and the number of contractions. The effect of the reference and test compounds was evaluated by comparing pre- and post-treatment pressure values. […]
The activities of the pyrrolidine derivatives of formula (I) may be assessed using the above described in vivo biological assay. […]

IC50 (hOT receptor)	melting point	SMILES	% Reduction of Uterine Contraction ([1]; dose 1 mg/kg)	% Reduction of Uterine Contraction ([1]; dose 3 mg/kg)	% Reduction of Uterine Contraction ([1]; dose 10 mg/kg)
15 nM	40 °C	CO/N=C1/C[C@@H](C(=O)OC)N(C(=O)c2ccc(-c3ccccc3C)cc2)C1 [Methyl (2S,4Z)-4-(methoxyimino)-1-[(2′-methyl[1,1′-biphenyl]-4-yl)carbonyl]-2-pyrrolidinecarboxylate]	−35.4 ± 7.0%	−49.0 ± 6.5%	−51.8 ± 9.2%
15 nM		CO/N=C1\C[C@@H](C(=O)OC)N(C(=O)c2ccc(-c3ccccc3C)cc2)C1 [Methyl (2S,4E)-4-(methoxyimino)-1-[(2′-methyl[1,1′-biphenyl]-4-yl)carbonyl]-2-pyrrolidinecarboxylate]			
